Measured values as given in paper PMC12040169 (PLOS Biology, 2025).

assay: in vitro; details: human, hela cells, % viability

Row | Structure (SMILES) | viability at 28.5 h, 10 µM
1 | O=C(c1ccc(F)cc1)[C@H]1CCCN(C(=O)c2ccco2)C1 [CBK284328] | 80.7%
2 | O=C(c1ccccc1F)[C@H]1CCCN(C(=O)c2cc(C3CC3)n[nH]2)C1 [CBK284330] | 80%
3 | Cn1ccc(C(=O)N2CCC[C@H](C(=O)c3ccc(F)cc3)C2)n1 [CBK284333] | 88.3%
4 | Cc1noc(C)c1C(=O)N1CCC[C@H](C(=O)c2ccc(F)cc2)C1 [CBK284334] | 81.7%
5 | CC(C)C(=O)N[C@@H](C)Cn1nc(-c2cccs2)oc1=O [CBK284335] | 88.3%
6 | CC(C)CC(=O)N[C@@H](C)Cn1nc(-c2cccs2)oc1=O [CBK284336] | 82.4%
7 | C[C@@H](Cn1nc(-c2cccs2)oc1=O)NC(=O)C1CCCC1 [CBK284337] | 86.5%
8 | O=C(NC1CCCCC1)[C@@H]1C=CCN1C(=O)c1cccs1 [CBK284338] | 95.8%
9 | O=C1Nc2c(cnn2-c2ccc(Cl)cc2)C2=NCCN12 [CBK284341] | 93.1%
10 | Cc1ccc(-n2ncc3c2NC(=O)N2CCN=C32)cc1 [CBK284345] | 85.5%
11 | O=C(c1ccccc1F)N1CCC(n2c(=O)oc3ccccc32)CC1 [CBK284346] | 90.1%
12 | O=C(c1ccco1)N1CCC(n2c(=O)oc3ccccc32)CC1 [CBK284350] | 92.8%
13 | CC(C)NC(=O)C1CC2CCC1CC21NC(=O)c2ccccc2O1 (stereo not shown) [CBK284353] | 83.5%
14 | Cc1cc(C(=O)N2C[C@H]3CC[C@](O)(c4ccc(F)cc4)[C@H]3C2)on1 [CBK284354] | 92.4%
15 | O=C(c1cc(F)cc(F)c1)N1CCC(O)(c2cccnc2F)CC1 [CBK284361] | 92.7%
16 | O=C(Cc1cccc(F)c1)N1CCC(O)(c2cccnc2F)CC1 [CBK284362] | 90.5%
17 | Cc1cc(-c2cc(=O)n(Cc3ccc(F)cc3)nc2C2CC2)on1 [CBK284364] | 98.2%
18 | Cc1cc(-c2cc(=O)n(Cc3ccccc3)nc2C2CC2)on1 [CBK284365] | 86.2%
19 | OC1(c2cccnc2F)CCN(Cc2ccc(F)cc2F)CC1 [CBK284369] | 82.6%
20 | OC1(c2cccnc2F)CCN(Cc2ccc(F)c(F)c2)CC1 [CBK284370] | 90%
21 | OC1(c2cccnc2F)CCN(Cc2cc(F)ccc2F)CC1 [CBK284371] | 83.6%
22 | OC1(c2cccnc2F)CCN(Cc2cccc(F)c2)CC1 [CBK284373] | 85.5%
23 | CCn1cncc1CN1CC2CCCC(O)(c3ccc(C)cc3)C2C1 (stereo not shown) [CBK284374] | 90%

Row | Structure (SMILES) | viability at 28.5 h, 10 µM
24 | Cc1cc2ncc3c(n2n1)CC1CCC3N1Cc1ccc(F)c(F)c1 (stereo not shown) [CBK284378] | 90.9%
25 | Cc1cc2ncc3c(n2n1)CC1CCC3N1C(=O)CCc1ccco1 (stereo not shown) [CBK284380] | 78.2%
26 | CCC(=O)N1C2CCC1c1cnc3cc(-c4ccco4)nn3c1C2 (stereo not shown) [CBK284384] | 92.7%
27 | O=C(CN1C(=O)N2CCCN=C2c2ccc(Cl)cc21)N1CCCC1 [CBK284387] | 78.7%
28 | O=C(CN1C(=O)N2CCCN=C2c2ccc(Cl)cc21)NC1CC1 [CBK284388] | 89%
29 | CCCNC(=O)CN1C(=O)N2CCCN=C2c2ccc(Cl)cc21 [CBK284389] | 82.8%
30 | CC(C)NC(=O)CN1C(=O)N2CCCN=C2c2ccc(Cl)cc21 [CBK284390] | 96.5%
31 | O=C(CN1C(=O)N2CCCN=C2c2ccccc21)NC1CCCCC1 [CBK284396] | 88.8%
32 | O=C(CN1C(=O)N2CCCN=C2c2ccccc21)N1CCCCCC1 [CBK284399] | 96.4%
33 | CCOC(=O)CN1C(=O)N2CCCN=C2c2ccc(Cl)cc21 [CBK284401] | 77.8%
34 | COC(=O)CN1C(=O)N2CCCN=C2c2ccc(Cl)cc21 [CBK284402] | 89.8%
35 | CCCNC(=O)CN1C(=O)N2CCCN=C2c2ccccc21 [CBK284405] | 86%
36 | Cc1nc2c(c(=O)[nH]1)CC[C@@H]1CN(C(=O)c3cccs3)C[C@H]21 [CBK284406] | 88.7%
37 | Cc1nc2c(c(=O)[nH]1)CC[C@@H]1CN(C(=O)c3occ4ccccc34)C[C@H]21 [CBK284408] | 101%
38 | Cc1nc2c(c(=O)[nH]1)CC[C@@H]1CN(C(=O)c3ccccc3F)C[C@H]21 [CBK284410] | 92.7%
39 | Cc1cc2ncc3c(n2n1)CC1CCC3N1Cc1ccc(C)o1 (stereo not shown) [CBK284412] | 88.9%
40 | Cc1nc2c(c(=O)[nH]1)CC[C@@H]1CN(C(=O)Cc3cccc(F)c3)C[C@H]21 [CBK284413] | 80.4%
41 | Cc1cc2ncc3c(n2n1)CC1CCC3N1C(=O)c1cccs1 (stereo not shown) [CBK284415] | 103%
42 | Cc1ccc(-n2ncc3c2NC(=O)N2CCCN=C32)cc1 [CBK284416] | 110%
43 | Cc1nc2c(c(=O)[nH]1)CC[C@@H]1CN(C(=O)c3cc(F)cc(F)c3)C[C@H]21 [CBK284418] | 101%
44 | O=C(CN1C(=O)N2CCCN=C2c2ccccc21)N1CCCC1 [CBK284419] | 88.4%
45 | O=C(C1CCCC1)N1C2CCC1CC(O)(c1cccnc1F)C2 (stereo not shown) [CBK284421] | 88.4%
46 | O=C(c1cccc(F)c1)N1C2CCC1CC(O)(c1cccnc1F)C2 (stereo not shown) [CBK284422] | 104%

Row | Structure (SMILES) | viability at 28.5 h, 10 µM
47 | Cc1ccc(C(=O)N2C3CCC2CC(O)(c2cccnc2F)C3)o1 (stereo not shown) [CBK284423] | 104%
48 | Cn1nccc1C(=O)C1CCN(C(=O)c2cccs2)CC1 [CBK284424] | 95.1%
49 | Cn1nccc1C(=O)C1CCN(C(=O)c2ccccc2F)CC1 [CBK284425] | 94.5%
50 | Cc1cc(C(=O)N2CCC(C(=O)c3ccnn3C)CC2)sc1C [CBK284428] | 89.3%
51 | c1ccc2c3c([nH]c2c1)C12CCN(CC1)C(C1CCOC1)N2CC3 (stereo not shown) [CBK284433] | 88.2%
52 | c1ccc2c3c([nH]c2c1)C12CCN(CC1)C(c1ccncc1)N2CC3 (stereo not shown) [CBK284434] | 88.5%
53 | Cc1cccc(C2N3CCC4(CC3)c3[nH]c5ccccc5c3CCN24)n1 (stereo not shown) [CBK284435] | 90.5%
54 | Fc1ccc2[nH]c3c(c2c1)CCN1C(c2cccnc2)N2CCC31CC2 (stereo not shown) [CBK284436] | 87.6%
55 | Fc1ccc2[nH]c3c(c2c1)CCN1C(c2ccncc2)N2CCC31CC2 (stereo not shown) [CBK284437] | 78.6%
56 | O=C1NC2(CCC(=O)N(Cc3ccccc3)CC2)Oc2ccccc21 (stereo not shown) [CBK284438] | 91.6%
57 | CC(C)NC(=O)C1CC2CCC1(C)C[C@]21NC(=O)c2ccccc2N1 (stereo partly shown) [CBK284444] | 88.7%
58 | CC12CCC(CC1C(=O)NC1CC1)[C@]1(C2)NC(=O)c2ccccc2N1 (stereo partly shown) [CBK284445] | 92.2%
59 | O=C1NC2(CC3CCC2N3Cc2ccco2)Nc2ccccc21 (stereo not shown) [CBK284446] | 91.8%
60 | CC(=O)N1CC2(CCN(C(=O)c3ccco3)CC2)Nc2ccccc21 [CBK284447] | 95.5%
61 | O=C(C1CC1)N1C2CCC1Cn1c(nc3ccccc3c1=O)C2 (stereo not shown) [CBK284451] | 92.2%
62 | O=C1N[C@@]2(CC3CCC2CC3C(=O)NC2CC2)Nc2ccccc21 (stereo partly shown) [CBK284454] | 85.9%
63 | CN1CCC2(CCC1=O)CC(N)c1ccccc1O2 (stereo not shown) [CBK284456] | 103%
64 | Cc1cnn(CC(=O)N2CCC(c3cc4ncccc4[nH]3)CC2)c1 [CBK284458] | 77.2%
65 | CN(C)c1ccc(C(=O)N2CCC(c3cc4ncccc4[nH]3)CC2)cc1 [CBK284459] | 93.3%
66 | Cc1cc(-c2ccc(=O)n(C3CCN(C(=O)C4CC4)CC3)n2)c(C)o1 [CBK284462] | 87.2%
67 | CC(C)(C)OC(=O)N1CCCC2(CCCN(C(=O)c3ccco3)C2)C1 (stereo not shown) [CBK284463] | 94.7%
68 | COc1ccccc1CC(=O)N1CCC(c2onc3c2CCC3)CC1 [CBK284464] | 99.2%
69 | CC1CCc2nn(CCNC(=O)Cc3cccs3)c(=O)cc2C1 (stereo not shown) [CBK284465] | 88.8%

Row | Structure (SMILES) | viability at 28.5 h, 10 µM
70 | O=C1CCN(C(=O)c2ccccn2)CCN1Cc1cccc(F)c1 [CBK284467] | 90.5%
71 | Cc1ccc2c(c1)C(=O)CC1(CC3CCC1N3C(=O)C(C)C)O2 (stereo not shown) [CBK284468] | 87.1%
72 | CN1C(=O)C(C)(C)Oc2ccc(C(O)c3ccco3)cc21 (stereo not shown) [CBK284469] | 89.8%
73 | COc1cc2c(cc1OC)C1c3ccccc3NC(=O)N1CC2 (stereo not shown) [CBK284471] | 88%
74 | Cc1ccc2c(c1)oc(=O)n2CCNC(=O)c1cccs1 [CBK284472] | 99.9%
75 | Cc1c(CN2CCCC(n3cnc4cc(F)ccc43)C2)cnn1C (stereo not shown) [CBK284478] | 89.9%
76 | CC1CCc2nn(CCNC(=O)Cc3ccc(F)cc3)c(=O)cc2C1 (stereo not shown) [CBK284485] | 92.5%
77 | O=C(c1ccco1)N1CCC(c2onc3c2CCCCC3)CC1 [CBK284486] | 91%
78 | O=C(C1CCCO1)N1CCC(c2onc3c2CCCCC3)CC1 (stereo not shown) [CBK284487] | 98.4%
79 | Cc1ccc(C2Nc3ccccc3C3=NCCCN32)o1 (stereo not shown) [CBK284488] | 103%
80 | CC(=O)Nc1nc(-c2cccs2)c(-c2cc(C)no2)s1 [CBK284493] | 98.9%
81 | COc1ccc(-n2ncc3c2CCCN(C(=O)C2CC2)C3)cc1 [CBK284498] | 84.3%
82 | Cc1ccc(CC(=O)N2CCc3nn(C(C)C)c(=O)cc3C2)cc1 [CBK284499] | 93.6%
83 | Cc1cc(-c2cc3nc(C)c(C)c(O)n3n2)c(C)o1 [CBK284500] | 90.4%
84 | COc1ccc(-n2ncc3c2CCCN(C(=O)C2CCCC2)C3)cc1 [CBK284501] | 78%
85 | O=C(O)c1ccc(-n2ccnc2)c(C#Cc2ccccc2)c1 [CBK284502] | 89.5%
86 | O=C(C1CC1)N1CCC2(CC1)Nc1cccnc1-n1cccc12 [CBK284504] | 107%
87 | O=C(c1ccco1)N1CCC2(CC1)Nc1cccnc1-n1cccc12 [CBK284506] | 85.3%
88 | CCC(CC)C(=O)N1CCC2(CC1)Nc1cccnc1-n1cccc12 [CBK284508] | 80.7%
89 | Cn1cccc1C1(O)CCCC2CN(C(=O)c3ccco3)CC21 (stereo not shown) [CBK284509] | 99.9%
90 | OC1(c2cccnc2)CCCC2CN(Cc3ccc(F)c(F)c3)CC21 (stereo not shown) [CBK284511] | 101%
91 | OC1(c2cccnc2)CCCC2CN(Cc3c(F)cccc3F)CC21 (stereo not shown) [CBK284512] | 114%
